Common to all, as to assay: Antimicrobial activity assay, broth microdilution MIC
Holding throughout (type): cell-based
On the technique in general: Broth dilution looks for growth in wells or tubes with falling amounts of substance.

For experiment [1], the system named is Moraxella catarrhalis 1502. As to conditions: others: individual runs; for MIC: Moraxella catarrhalis, 1502, Examples 24 and 63: median of all results obtained. The procedure:
(§1) Whole-cell antimicrobial activity was determined by broth microdilution using the Clinical and Laboratory Standards Institute (CLSI, formerly NCCLS) recommended methodology (NCCLS Document M7-A6, “Methods for Dilution Susceptibility Tests for Bacteria that Grow Aerobically—Approved Standard Sixth Edition”, 2003). Compounds were tested in serial two-fold dilutions ranging from 64 to 0.06 μg/mL. A panel of 12 strains was evaluated in the assay. This panel consisted of the following laboratory strains: Staphylococcus aureus Oxford, Staphylococcus aureus WCUH29, Enterococcus faecalis 1, Enterococcus faecalis 7, Haemophilus influenzae Q1, Haemophilus influenzae NEMC1, Moraxella catarrhalis 1502, Streptococcus pneumoniae 1629, Streptococcus pneumoniae N1387, Streptococcus pneumoniae Ery2, Escherichia coli 7623 (AcrABEFD+) and Escherichia coli 120 (AcrAB−). The minimum inhibitory concentration (MIC) was determined as the lowest concentration of compound that inhibited visible growth. A mirror reader was used to assist in determining the MIC endpoint.

Experiment [2] has as its system Staphylococcus aureus WCUH29. Particulars: others: individual runs; for MIC: Staphylococcus aureus, WCUH29, Examples 24 and 63: median of all results obtained, read-out: MIC, S. aureus WCUH29. The procedure: as §1
In experiment [3] the test system is Streptococcus pneumoniae Ery2. Particulars: Examples 24 and 63: median of all results obtained, others: individual runs, read-out: MIC, S. pneumoniae ERY2. The procedure: as §1
Experiment [4] relates to Staphylococcus aureus Oxford. As to conditions: Examples 24 and 63: median of all results obtained, others: individual runs; for MIC: Staphylococcus aureus, read-out: MIC, S. aureus Oxford. How it is done: as §1
Experiment [5] deals with Streptococcus pneumoniae 1629. As to conditions: Examples 24 and 63: median of all results obtained, others: individual runs, read-out: MIC, S. pneumoniae 1629. The procedure: as §1
Experiment [6] relates to Streptococcus pneumoniae N1387. Particulars: Examples 24 and 63: median of all results obtained, others: individual runs, read-out: MIC, S. pneumoniae N1387. How it is done:
as §1

Another experiment deals with Enterococcus faecalis 1. Particulars: others: individual runs; for MIC: Enterococcus faecalis, 1, Examples 24 and 63: median of all results obtained, read-out: MIC, E. faecalis I; for MIC, E. faecalis I: Examples 24 and 63: median of all results obtained. How it is done: as §1
For a further experiment, the system named is Enterococcus faecalis 7. Particulars: others: individual runs; for MIC: Enterococcus faecalis, 7, Examples 24 and 63: median of all results obtained, read-out: MIC, E. faecalis 7; for MIC, E. faecalis 7: Examples 24 and 63: median of all results obtained. How it is done: as §1
The subject of experiment [7] is Escherichia coli 7623 (AcrABEFD+). As to conditions: Examples 24 and 63: median of all results obtained; others: individual runs. How it is done: as §1
The mark [8] stands for this setting: Examples 24 and 63: median of all results obtained.

≈ marks a conversion by molar mass, not a printed value. Where “and” joins values, the source holds several entries; their conditions need not be identical. Equal entries are not always repeated.

For the compound `Cc1nc(NNC(=O)[C@H](CC2CCCC2)CN(O)C=O)c(F)c(N2CCN3CCOC[C@@H]3C2)n1` [Example 24, [(2R)-2-(Cyclopentylmethyl)-3-(2-{5-fluoro-6-[(9aS)-hexahydropyrazino[2,1-c][1,4]oxazin-8(1H)-yl]-2-methyl-4-pyrimidinyl}hydrazino)-3-oxopropyl]hydroxyformamide], the minimum inhibitory concentration (MIC) in experiment [1], in experiment [2] and in experiment [3] was 0.375 µg/mL (≈ 0.782 µM) in each case.

Turning to `C[C@@H]1CN(C)CCN1c1nc(Cl)nc(NNC(=O)[C@H](CC2CCCC2)CN(O)C=O)c1F` [Example 63, [(2R)-3-(2-{2-Chloro-6-[(2R)-2,4-dimethyl-1-piperazinyl]-5-fluoro-4-pyrimidinyl}hydrazino)-2-(cyclopentylmethyl)-3-oxopropyl]hydroxyformamide], the MIC in experiment [4] was found to be 1 µg/mL (≈ 2.12 µM); in experiment [5], 0.5 µg/mL (≈ 1.06 µM); in experiment [1], 0.125 µg/mL (≈ 0.265 µM); in experiment [6] it was 0.25 µg/mL (≈ 0.53 µM); with Enterococcus faecalis 1, 16 µg/mL (≈ 33.9 µM); in experiment [2], 0.5 µg/mL (≈ 1.06 µM). Moreover, the minimal inhibitory concentration (MIC) with Enterococcus faecalis 7 amounted to 64 µg/mL (≈ 136 µM); in [3], 0.25 µg/mL (≈ 0.53 µM).

As to `Cc1nc(NNC(=O)[C@H](CC2CCCC2)CN(O)C=O)c(F)c(N2CCN(C)C[C@H]2C)n1` [Example 109, [(2R)-2-(Cyclopentylmethyl)-3-(2-{6-[(2R)-2,4-dimethyl-1-piperazinyl]-5-fluoro-2-methyl-4-pyrimidinyl}hydrazino)-3-oxopropyl]hydroxyformamide], the minimal inhibitory concentration (MIC) in experiment [4] was 2 µg/mL (≈ 4.43 µM); in experiment [5], 0.5 µg/mL (≈ 1.11 µM); in experiment [1], 0.25 µg/mL (≈ 0.554 µM); in experiment [6] it was 0.25 µg/mL (≈ 0.554 µM); with Enterococcus faecalis 1, 64 µg/mL (≈ 142 µM); in experiment [2], 0.5 µg/mL (≈ 1.11 µM). For the same compound, the minimum inhibitory concentration (MIC) in the experiment with Enterococcus faecalis 7 is more than 64 µg/mL; in [3], 0.25 µg/mL (≈ 0.554 µM). The “MIC, E. faecalis I” value in the experiment with Enterococcus faecalis 1 is on record as 64, >64 μg/ml.

Regarding `CN1CCN(c2nc(Cl)nc(NNC(=O)[C@H](CC3CCCC3)CN(O)C=O)c2F)CC12CC2` [Example 172, [(2R)-3-{2-[2-Chloro-5-fluoro-6-(4-methyl-4,7-diazaspiro[2.5]oct-7-yl)-4-pyrimidinyl]hydrazino}-2-(cyclopentylmethyl)-3-oxopropyl]hydroxyformamide], the “MIC, S. aureus Oxford” value in [4] was 2 µg/mL (≈ 4.13 µM). Also, the minimum inhibitory concentration (MIC) in experiment [4] is 1 µg/mL (≈ 2.07 µM); in [5] it was 0.5 µg/mL (≈ 1.03 µM); in [6] it was 0.125 µg/mL (≈ 0.258 µM); in the experiment on Enterococcus faecalis 1, 16 µg/mL (≈ 33.1 µM); in [2], 0.5 µg/mL (≈ 1.03 µM); in experiment [3] it was 0.125 to 0.25 µg/mL (≈ 0.258 to 0.517 µM). Besides, the “MIC, M. catarrhalis 1502” value in experiment [1] (setting [8]) is ≤ 0.06 µg/mL and 0.125 µg/mL. Moreover, the “MIC, E. coli 7623 AcrABEFD+” value in experiment [7] is 4 µg/mL and 16 µg/mL. For the same compound, the “MIC, E. faecalis 7” value in the experiment with Enterococcus faecalis 7 was 8 µg/mL and 64 µg/mL.

Consider `Cc1nc(NNC(=O)[C@H](CC2CCCC2)CN(O)C=O)c(F)c(N2CCN(C)C3(CC3)C2)n1` [Example 275, ((2R)-2-(Cyclopentylmethyl)-3-{2-[5-fluoro-2-methyl-6-(4-methyl-4,7-diazaspiro[2.5]oct-7-yl)-4-pyrimidinyl]hydrazino}-3-oxopropyl)hydroxyformamide], for which the “MIC, S. aureus Oxford” value in experiment [4] was 4 µg/mL (≈ 8.63 µM). Besides, the minimum inhibitory concentration (MIC) in [4] is 2 µg/mL (≈ 4.31 µM); in [5], 1 µg/mL (≈ 2.16 µM); in experiment [1], 0.25 µg/mL (≈ 0.539 µM); in experiment [6], 0.5 µg/mL (≈ 1.08 µM); in the experiment on Enterococcus faecalis 1, 32 µg/mL (≈ 69 µM); in experiment [2], 0.5 µg/mL (≈ 1.08 µM). Also, in [3], the MIC was 0.5 µg/mL (≈ 1.08 µM). In addition, in the experiment with Enterococcus faecalis 1, the “MIC, E. faecalis I” value was determined as 64 µg/mL (≈ 138 µM). Moreover, the “MIC, E. coli 7623 AcrABEFD+” value in [7] is 4 µg/mL and 16 µg/mL. The “MIC, S. aureus WCUH29” value in experiment [2] (setting [8]) was determined as 1 µg/mL (≈ 2.16 µM). For the same compound, the “MIC, E. faecalis 7” value with Enterococcus faecalis 7 is 16 µg/mL and 64 µg/mL.

The term MIC denotes the smallest concentration in the dilution series that meets the test's criterion for growth inhibition.

For the origin of these results see patent publication US7893056B2, “Peptide deformylase inhibitors” (GlaxoSmithKline LLC, priority 2007, dated 2011).
